Measured values from patent US20120295982A1, “TREATING HUMAN MALE COPD PATIENTS WITH ORAL BEDORADRINE” (MediciNova, Inc., priority 2011, published 2012).
Counter-ions that a name gives are not always drawn.

Columns and labels:
[1] = Oral bioavailability in dogs; conditions: dog, in vivo, read-out: Oral F %
[2] = tested on: moderate-to-severe COPD patients; experiment: Phase Ib placebo-controlled test of i.v. MN-221 in moderate-to-severe COPD patients; assay type: in vivo, human; conditions: for FEV1 increase as compared to baseline (average): end of infusion
Protocol: This example provides certain preferred oral dosages for treating male COPD patients according to this invention. A randomized, double-blind, placebo-controlled phase Ib clinical test evaluated MN-221 in 48 moderate-to-severe COPD patients who received a 1 hour intravenous (i.v.) infusion of MN-221 at three different escalating dose levels (300 micrograms, 600 micrograms, or 1200 micrograms) or placebo.
(a) diagnosed (e.g., by clinical history, 20 pack/year smoking history, physical examination [PE], and spirometry) COPD treated for ≧3 months prior to Screen Visit 1; (b) ≧30% FEV1<80% and FEV1/FVC (forced vital capacity) ratio<0.7 at Screen Visits 1 and 2; and (c) increase in FEV1 of 12%, over the pre-albuterol FEV1 within 30 min after inhalation of up to 4 puffs of albuterol delivered by Metered Dose Inhaler (MDI) with spacer at the Screen Visit 1.
48 subjects with stable, moderate-to-severe chronic obstructive pulmonary disease were administered MN-221. The following does were administered. 10 μg/min for 15 min+3.3 μg/min for 45 min (1-hr infusion total dose 300 μg) or placebo; 20 μg/min for 15 min+6.67 μg/min for 45 min (1-hr infusion total dose 600 μg) or placebo; and 40 μg/min for 15 min+13.3 μg/min for 45 min (1-hr infusion total dose 1,200 μg) or placebo.

[3] = tested on: patients with acute exacerbations of asthma (AEA); experiment: Placebo-controlled dose-escalating test of i.v. MN-221 plus standard of care in acute exacerbations of asthma (emergency department); assay type: in vivo, human
Protocol: This example provides certain preferred oral dosages for treating male COPD patients according to this invention. Initially, the efficacy and safety of administering intravenous MN-221 in combination with standard of care (SOC) for treating acute exacerbations of asthma (AEA) in an emergency department (ED) setting is determined. The testing was performed in a randomized, placebo-controlled, dose-escalating, setting. Twenty nine patients received SOC (nebulized albuterol and ipratropium plus oral corticosteroid). Patients with FEV1≦55% of predicted were randomized to MN-221 (240 or 450 μg infused over 15 min or 1080 μg over 2 hr) or Placebo. MN-221 was administered as follows: 16 μg/min for 15 min (total dose of 240 μg); 30 μg/min for 15 min (total dose of 450 μg); 16 μg/min for 15 min+8 μg/min for 105 min (total dose of 1,080 μg); and 2 patients received total dose of 1,995 μg. Safety, efficacy and PK parameters were monitored hourly throughout a 5 hr treatment period and a 24 hr follow-up visit. Nebulized albuterol (2.5 mg) and/or ipratropium (0.5 mg) was available hourly during screening and treatment phases. Efficacy endpoints included spirometry, dyspnea indexing, albuterol use, and hospitalization rates. The testing was completed with 13 patients (n=13) in SOC+Placebo and 16 patients (n=16) receiving SOC+MN-221; 5 at 240 μg, 6 at 450 μg, and 5 intended for a 1080 μg dose. Patients received Standard of Care (SOC) treatment in addition to adjunctive treatment with MN-221 or placebo. MN-221 was well-tolerated.

[4] = Oral bioavailability in rats; assay type: in vivo
[5] = Oral bioavailability in rabbits; conditions: rabbit, in vivo, read-out: Oral F %

CN(C)C(=O)COc1ccc2c(c1)C[C@@H](NC[C@H](O)c1ccc(O)c(CCO)c1)CC2 [MN-221, bedoradrine sulfate]
bioavailability [1]: 39%
FEV1 increase as compared to baseline (average) ([2]; 300 microgram 1-hr i.v. infusion, p=NS): 9.2%
Mean changes in PEFR (L/sec) ([2]; 600 and 1200 μg i.v. groups, greatest during 1-3 hr post infusion): higher than the all placebo group
Mean changes in PEFR (% predicted) ([2]; 600 and 1200 μg i.v. groups, greatest in first 3-4 hr post-infusion): higher than the all placebo group
FEV1 increase as compared to baseline (average) ([2]; 600 microgram 1-hr i.v. infusion, p=0.020): 16.2%
FEV1 increase as compared to baseline (average) ([2]; 1200 microgram 1-hr i.v. infusion, p=0.0025): 21.5%
FEV1 (%, predicted) ([2]; MN-221 treated subjects, i.v. infusion): improved
tolerability ([2]; i.v. infusions 300-1200 μg, COPD patients): well tolerated
heart rate relative to Placebo ([3]; all MN-221 group): minimally elevated
hospitalization rate ([3]; all MN-221 group (4/16), i.v. plus SOC): 25%
FEV1 (% predicted), change from baseline in AUC1-5 hr, higher vs. Placebo ([3]; all MN-221 group vs. Placebo): 43%
tolerability ([3]; i.v. MN-221 240-1080 μg plus standard of care, AEA patients): well-tolerated
electrocardiograph (ECG) findings ([3]; i.v. MN-221 plus SOC): No abnormal electrocardiograph (ECG) findings were observed
intensity of the majority of adverse events ([3]; i.v. MN-221 plus SOC): mild to moderate in intensity
gender difference of oral bioavailability ([4]; orally administered, female vs male rats): greater bioavailability in female rats compared to male rats
bioavailability ([4]; rat, in vivo, po, rats, read-out: Oral F %): ≤ 3%
bioavailability [5]: ≤ 3%
